The target in one series is α4β2 nAChRs (Rattus norvegicus, UniProt P09483+P12390). Briefly: biochemical. In kind it is binding.
Where [1] appears, read: Table 1, [3H]epibatidine binding, rat cerebral cortex.
[2] abbreviates: read-out: α4β2 [^3H]Epibatidine (Ki), Table 1, male rat cerebral cortex homogenate, 0.5-2 nM [3H]epibatidine, Ki from IC50 by Cheng-Prusoff.

Where two headings read alike, the source gives them in different places. Where only a bound is given, the exact number is not on record here.

Chain of α4β2 nAChRs (P09483 31-630): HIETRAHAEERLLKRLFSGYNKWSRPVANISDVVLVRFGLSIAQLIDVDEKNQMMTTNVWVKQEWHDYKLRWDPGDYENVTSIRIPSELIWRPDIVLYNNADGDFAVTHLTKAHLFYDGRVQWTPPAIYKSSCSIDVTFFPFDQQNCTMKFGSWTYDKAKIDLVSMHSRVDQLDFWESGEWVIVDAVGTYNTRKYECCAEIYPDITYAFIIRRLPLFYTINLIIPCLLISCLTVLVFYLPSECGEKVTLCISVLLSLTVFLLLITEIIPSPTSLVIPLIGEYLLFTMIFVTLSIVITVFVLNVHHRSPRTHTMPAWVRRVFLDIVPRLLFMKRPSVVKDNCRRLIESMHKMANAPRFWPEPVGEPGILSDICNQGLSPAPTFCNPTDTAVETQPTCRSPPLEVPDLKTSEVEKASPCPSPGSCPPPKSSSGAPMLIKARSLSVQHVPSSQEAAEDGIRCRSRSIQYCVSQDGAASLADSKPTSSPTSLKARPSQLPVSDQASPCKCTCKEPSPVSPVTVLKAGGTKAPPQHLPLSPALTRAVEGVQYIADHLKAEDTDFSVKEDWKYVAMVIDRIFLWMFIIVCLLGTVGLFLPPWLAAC
Chain of α4β2 nAChRs (P12390 25-500): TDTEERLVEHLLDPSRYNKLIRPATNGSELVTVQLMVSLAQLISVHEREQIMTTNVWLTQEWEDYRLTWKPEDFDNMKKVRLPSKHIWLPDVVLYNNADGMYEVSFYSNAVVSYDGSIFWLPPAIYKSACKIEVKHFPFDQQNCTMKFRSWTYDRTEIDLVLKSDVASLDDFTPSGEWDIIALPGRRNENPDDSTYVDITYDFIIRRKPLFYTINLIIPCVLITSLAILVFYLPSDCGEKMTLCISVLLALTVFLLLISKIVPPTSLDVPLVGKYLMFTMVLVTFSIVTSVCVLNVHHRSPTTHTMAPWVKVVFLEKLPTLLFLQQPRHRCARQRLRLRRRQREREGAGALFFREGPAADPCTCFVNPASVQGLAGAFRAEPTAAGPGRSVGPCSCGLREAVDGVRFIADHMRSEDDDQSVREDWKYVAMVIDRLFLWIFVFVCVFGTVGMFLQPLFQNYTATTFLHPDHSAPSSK

Usually Ki stands for a measure of affinity in units of concentration, obtained from inhibition or displacement. On to `Clc1ncc(C2CC3CCC2N3)cc1Br` (centres unmarked) [RTI-7527-53], for which the “Hill Slope” value on α4β2 nAChRs (setting [1]) amounted to 0.95 ± 0.09. At α4β2 nAChRs (setting [2]), the Ki stood at 0.013 ± 0.001 nM.
As to `NC1C2CCC1C(c1ccc(Cl)nc1)C2` (centres unmarked) [compound 3], the Ki at α4β2 nAChRs is 8.2 ± 0.08 nM. Moreover, at α4β2 nAChRs (setting [1]), the “Hill Slope” value worked out at 1.2 ± 0.04.
For the compound `Cc1nc(Cl)ccc1C1CC2CCC1N2` (centres unmarked) [compound 5], at α4β2 nAChRs, the inhibitory constant (Ki) is 256 ± 74 nM. Also, the “Hill Slope” value at α4β2 nAChRs (setting [1]) was 1.1 ± 0.03.
`Clc1cncc(C2CC3CCC2N3)c1` (centres unmarked) [compound 35] displayed an inhibition constant Ki at α4β2 nAChRs of 0.12 ± 0.006 nM. In addition, at α4β2 nAChRs (setting [1]), the “Hill Slope” value was found to be 0.9 ± 0.03.
As for `Ic1cncc(C2CC3CCC2N3)c1` (centres unmarked) [compound 41], the “Hill Slope” value at α4β2 nAChRs (setting [1]) was determined as 0.9 ± 0.02. Further, the Ki on α4β2 nAChRs (setting [2]) turned out to be 0.059 ± 0.001 nM.
With `Nc1ncc(C2CC3CCC2N3)cc1I` (stereo not drawn) [RTI-7527-24, 2-exo-[5′-(3′-Iodo-2′-aminopyridinyl)]-7-azabicyclo[2.2.1]-heptane], the “Hill Slope” value on α4β2 nAChRs (Table 1, [3H]epibatidine binding, rat cerebral cortex, listed as 34) is recorded as 1.08 ± 0.03. For the same compound, at α4β2 nAChRs (setting [2]), the Ki came to 35.5 ± 5.4 nM.
On α4β2 nAChRs, `Nc1ncc(C2CC3CCC2N3)cc1-c1ccccc1` (centres unmarked) [RTI-7527-51] yielded a Ki of 0.33 ± 0.05 nM. The “Hill Slope” value on α4β2 nAChRs (setting [1]) turned out to be 0.93 ± 0.03.
Take `Fc1ccc(C2CC3CCC2N3)cn1` (centres unmarked) [compound 13]: the “Hill Slope” value on α4β2 nAChRs (setting [1]) came out at 0.9 ± 0.02. Also, at α4β2 nAChRs (setting [2]), the Ki was 0.027 ± 0.001 nM.
As to `Fc1cc(C2CC3CCC2N3)cnc1F` (centres unmarked) [compound 38], affinity at α4β2 nAChRs was put at a Ki of 0.055 ± 0.001 nM. Moreover, the “Hill Slope” value at α4β2 nAChRs (setting [1]) is 1.0 ± 0.01.
`Nc1ncc(C2CC3CCC2N3)cc1-c1cccc([N+](=O)[O-])c1` (centres unmarked) [compound 42]: at α4β2 nAChRs, the “Hill Slope” value is 1.1 ± 0.09 and the inhibition constant Ki turned out to be 0.047 ± 0.002 nM.
At α4β2 nAChRs, `Ic1ncc(C2CC3CCC2N3)cc1-c1ccccc1` (centres unmarked) [RTI-7527-3] gave an inhibition constant (Ki) of 0.019 ± 0.002 nM. Besides, the “Hill Slope” value on α4β2 nAChRs (setting [1]) stood at 0.84 ± 0.02.
As for `CN(C)c1ccc(C2CC3CCC2N3)cn1` (centres unmarked) [compound 19], the “Hill Slope” value on α4β2 nAChRs (setting [1]) turned out to be 1.0 ± 0.01. In addition, the Ki at α4β2 nAChRs (setting [2]) was 26.4 ± 1.4 nM.
`CON=C1C2CCC1C(c1ccc(Cl)nc1)C2` (centres unmarked) [compound 2] showed a Ki at α4β2 nAChRs greater than 1000 nM.
Consider `Fc1cncc(C2CC3CCC2N3)c1` (centres unmarked) [compound 36], for which, at α4β2 nAChRs (setting [1]), the “Hill Slope” value amounted to 0.9 ± 0.01. Moreover, the inhibition constant (Ki) on α4β2 nAChRs (setting [2]) was determined as 0.037 ± 0.001 nM.
`Fc1ncc(C2CC3CCC2N3)cc1-c1ccccc1` (centres unmarked) [compound 47]: on α4β2 nAChRs, the affinity corresponds to a Ki of 0.14 ± 0.07 nM. At α4β2 nAChRs (setting [1]), the “Hill Slope” value was 1.1 ± 0.04.
Turning to `Nc1ncc(C2CC3CCC2N3)cc1I` (centres unmarked) [RTI-7527-57], the Ki on α4β2 nAChRs was found to be 1.47 ± 0.12 nM. In addition, the “Hill Slope” value at α4β2 nAChRs (Table 1, [3H]epibatidine binding, rat cerebral cortex, listed as 24) worked out at 1.07 ± 0.14.
Turning to `Oc1ncc(C2CC3CCC2N3)cc1-c1ccccc1` (centres unmarked) [compound 29], at α4β2 nAChRs, the “Hill Slope” value was 1.04 ± 0.07 and the Ki was 51.9 ± 2 nM.
On to `COc1cccc(-c2cncc(C3CC4CCC3N4)c2)c1` (centres unmarked) [compound 46], for which the “Hill Slope” value on α4β2 nAChRs (setting [1]) turned out to be 0.9 ± 0.03. Further, the Ki at α4β2 nAChRs (setting [2]) was 0.43 ± 0.05 nM.
Consider `Clc1ncc(C2CC3CCC2N3)cc1I` (centres unmarked) [RTI-7527-4], for which, at α4β2 nAChRs, the inhibition constant (Ki) is 0.012 ± 0.0003 nM. Also, on α4β2 nAChRs (setting [1]), the “Hill Slope” value amounted to 0.83 ± 0.03.
One may read the melting point as the temperature, or range, at which the solid turns liquid. `Clc1cc(C2CC3CCC2N3)cnc1Cl` (centres unmarked) [RTI-7527-5] had a melting point of 75 to 80 °C. In addition, the affinity on α4β2 nAChRs, expressed as Ki, was 0.015 ± 0.001 nM. Also, the “Hill Slope” value on α4β2 nAChRs (setting [1]) was determined as 0.87 ± 0.04.
Consider `Clc1ncc(C2CC3CCC2N3)cc1-c1ccccc1` (centres unmarked) [RTI-7527-2], for which the “Hill Slope” value at α4β2 nAChRs (setting [1]) is reported as 0.81 ± 0.02. Further, on α4β2 nAChRs (setting [2]), the Ki was determined as 0.021 ± 0.005 nM.
Take `CN1C2CCC1C(c1ccc(Cl)nc1)C2` (centres unmarked) [compound 11]: the melting point was 100 to 102 °C. In addition, the Ki at α4β2 nAChRs turned out to be 22.8 ± 0.001 nM. The “Hill Slope” value at α4β2 nAChRs (second table (structures A, B, C), [3H]epibatidine binding, rat cerebral cortex) came out at 1.07 ± 0.05.
Regarding `Nc1ccc(C2CC3CCC2C3)cn1` (centres unmarked) [compound 54], at α4β2 nAChRs, the “Hill Slope” value is listed as 1.1 and affinity was put at a Ki of 2200 nM.
For the compound `Fc1ncc(C2CC3CCC2N3)cc1I` (centres unmarked) [compound 39], at α4β2 nAChRs, the “Hill Slope” value was 1.0 ± 0.05 and the Ki came to 0.076 ± 0.004 nM.
`COc1cccc(-c2cc(C3CC4CCC3N4)cnc2Cl)c1` (centres unmarked) [compound 45] had a Ki on α4β2 nAChRs of 0.019 ± 0.005 nM. For the same compound, the “Hill Slope” value at α4β2 nAChRs (setting [1]) was determined as 0.8 ± 0.02.
`OC1C2CCC1C(c1ccc(Cl)nc1)C2` (centres unmarked) [compound 50] registered a Ki at α4β2 nAChRs greater than 1000 nM.
As for `Brc1cc(C2CC3CCC2N3)cnc1I` (centres unmarked) [RTI-7527-50], the Ki on α4β2 nAChRs amounted to 0.027 ± 0.002 nM. On α4β2 nAChRs (setting [1]), the “Hill Slope” value was 0.96 ± 0.05.
`Fc1ncc(C2CC3CCC2N3)cc1Cl` (centres unmarked) [compound 37] gave a Ki on α4β2 nAChRs of 0.02 ± 0.0003 nM. Moreover, the “Hill Slope” value on α4β2 nAChRs (setting [1]) stood at 0.8 ± 0.004.

The values above are taken from patent US7615567B2, “Compounds and methods for promoting smoking cessation” (priority 2000, dated 2009).
